{"source": "patent US20240216352A1", "about": "(priority 2022, published 2024)", "key": {"[1]": {"tested_on": "healthy Japanese participants", "experiment": "Phase 1 Part C MAD Japanese cohorts: blood pressure", "type": "in vivo, human", "procedure": "The study was performed in 3 parts in 112 healthy male and female participants, including 24 Japanese participants. Female participants were to be not of childbearing potential. The present study was designed to evaluate the safety and tolerability, PK, and exploratory PD of an oral suspension of Compound A. Parts A and B (Cohort B1 only) enrolled healthy participants and was conducted at a site in The Netherlands and Part B (Cohort B2 to B5) enrolled healthy non-Japanese participants and was conducted at a site in the United Kingdom (UK). Part C enrolled healthy Japanese participants and was conducted at the same site in the UK.\nPart C was a MAD study in 3 sequential dose escalation cohorts (30 mg BID, 60 mg BID, and 90 mg BID) of 8 healthy Japanese participants (6 active+2 placebo) each. Eligible participants in Cohorts C1 to C3 received study drug (Compound A or placebo) administered orally for 14 days.\nPhysical examinations, vital sign measurements (including orthostasis testing in Cohort A6, Cohort B3 to B5, and C1 to C3 at selected time points), 12-lead electrocardiogram (ECG), and clinical laboratory evaluations were performed at selected times throughout the study. In addition, Holter monitoring was performed for the first 24 hours post dose on Day 1 in Part A (not in FE/pH cohort), and also for the first 24 hours post dose on Day 1 and Day 14 in Parts B and C. Participants were closely monitored for adverse events (AEs). Blood samples were collected for up to 14 days (follow-up visit) after (last) study drug administration for PK analysis. In addition, blood and urine were collected for exploratory biomarker assessments and for biobanking of samples for potential analyses. Urine was collected for potential PK analysis for up to 96 hours after a single dose of Compound A or placebo was administered in the SAD part, and for up to 24 hours after the first (morning) dose of study drug on Day 1 and for up to 24 hours after the last (morning) dose of study drug on Day 14 in the MAD parts."}, "LPA1": {"biological_target": "LPA1 (Homo sapiens, UniProt Q92633)", "sequence (Q92633 whole entry)": "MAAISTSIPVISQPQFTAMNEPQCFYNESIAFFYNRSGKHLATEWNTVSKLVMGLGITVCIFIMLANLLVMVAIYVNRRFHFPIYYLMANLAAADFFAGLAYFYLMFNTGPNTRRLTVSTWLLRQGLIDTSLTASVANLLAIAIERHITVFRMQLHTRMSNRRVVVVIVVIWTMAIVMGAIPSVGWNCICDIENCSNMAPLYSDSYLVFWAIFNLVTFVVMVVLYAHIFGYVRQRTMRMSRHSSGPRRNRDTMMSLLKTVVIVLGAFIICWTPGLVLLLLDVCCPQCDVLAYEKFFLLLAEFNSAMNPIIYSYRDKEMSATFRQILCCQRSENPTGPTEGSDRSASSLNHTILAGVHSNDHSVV", "experiment": "LPA1 antagonism (Kb) in normal human lung fibroblasts", "type": "cell-based", "set-up": "LPA1Kb=5.9 nM in normal human lung fibroblasts; endogenous in cells; host or cells: normal human lung fibroblasts", "excerpt": "Compound A is currently in clinical development as a therapy for IPF and PF-ILD."}, "participants with PPF": {"tested_on": "participants with PPF", "experiment": "Phase 2 study, PPF cohort: efficacy (ppFVC, FVC)", "type": "in vivo, human", "details": "for Difference (S.E.) in rate of decline in FVC (% Predicted), 30 mg - placebo: 30 mg BID", "procedure": "A total of 123 participants with PPF were randomized. Participants (age ≥21 years) were randomized (1:1:1) to receive 30 mg or 60 mg Compound A or PBO twice daily for 26 weeks. […] Immunosuppressive medications (mycophenolate mofetil, mycophenolic acid, azathioprine and/or tacrolimus) were permitted only if dosing is stable for ≥6 months prior to screening. If receiving antifibrotic agents pirfenidone or nintedanib, patients had to receive a stable dosage for ≥3 months prior to screening and during the screening period; if not receiving pirfenidone or nintedanib, patients had to be naive to both drugs or not have received either 4 weeks prior to Day 1. A total of 47 (38.2%) subjects were receiving antifibrotic treatment (with or without immunosuppression therapy). Of those subjects, 34 were being treated with nintedanib and 13 with pirfenidone. Participants were stratified by usual interstitial pneumonia (UIP) pattern (presence versus absence) and background therapy (antifibrotics+/−ILD-targeted immunosuppression versus ILD-targeted immunosuppression alone versus none). UIP pattern was present in 52% of subjects and unclassifiable ILD was the most common disease categorization.\nThe study was not powered to detect statistical significance (no formal testing). No target effect size was defined in the study design. There were two estimand approaches for analysis: • Treatment Policy: Effect of treatment with dose reduction as part of treatment regimen.\nWhile-On Treatment: Effect of treatment without dose reduction.\nThe main efficacy endpoint, rate of FVC decline (in % of predicted) from baseline to wk-26 in the PPF cohort, was estimated using a linear mixed-effects model utilizing all FVC timepoints. It was analyzed under a primary estimand (utilizing all data, treatment policy strategy), and under supplementary estimand (utilizing all data up to the point of dose reduction, while-on-treatment strategy). Analysis was performed in the overall population as well as in sub-groups by 1) background anti-fibrotic treatment or not 2) UIP radiographic pattern (presence or not). The mean baseline ppFVC was 66.7% for the PPF cohort."}}, "note": "Where “and” joins values, the source holds several entries; their conditions need not be identical. Identical values can stand only once."}
{"smiles": "CCCN(C)C(=O)OCc1c(-c2ccc(O[C@H]3CCC[C@H](C(=O)O)C3)c(C)n2)nnn1C", "note": "[Compound A, (1S,3S)-3-((2-methyl-6-(1-methyl-5-(((methyl(propyl)carbamoyl)-oxy)methyl)-1H-1,2,3-triazol-4-yl)pyridin-3-yl)oxy)cyclohexane-1-carboxylic acid]", "values": [{"measurement": "Maximum of mean (±SD) reduction in DBP from baseline (column printed under the head Baseline (mmHg))", "setting": "[1]; Japanese MAD 30 BID (C1)", "value": "8.8 ± 5.12", "unit": "mmHg"}, {"measurement": "Maximum of mean (±SD) reduction in SBP from baseline", "setting": "[1]; Japanese MAD 30 BID (C1)", "value": "15.0 ± 6.84", "unit": "mmHg"}, {"measurement": "Time of maximum mean SBP reduction", "setting": "[1]; Japanese MAD 30 BID (C1)", "value": "1-4 Day-h"}, {"measurement": "Maximum of mean (±SD) reduction in DBP from baseline (column printed under the head Baseline (mmHg))", "setting": "[1]; Japanese MAD 60 BID (C2)", "value": "8.2 ± 10.40", "unit": "mmHg"}, {"measurement": "Maximum of mean (±SD) reduction in SBP from baseline", "setting": "[1]; Japanese MAD 60 BID (C2)", "value": "13.0 ± 8.22", "unit": "mmHg"}, {"measurement": "Time of maximum mean DBP reduction", "setting": "[1]; Japanese MAD 60 BID (C2)", "value": "4-16 Day-h"}, {"measurement": "Time of maximum mean SBP reduction", "setting": "[1]; Japanese MAD 60 BID (C2)", "value": "2-16 Day-h"}, {"measurement": "Maximum of mean (±SD) reduction in DBP from baseline (column printed under the head Baseline (mmHg))", "setting": "[1]; Japanese MAD 90 BID (C2)", "value": "8.0 ± 8.22", "unit": "mmHg"}, {"measurement": "Maximum of mean (±SD) reduction in SBP from baseline", "setting": "[1]; Japanese MAD 90 BID (C2)", "value": "11.8 ± 8.47", "unit": "mmHg"}, {"measurement": "Time of maximum mean DBP reduction", "setting": "[1]; Japanese MAD 90 BID (C2)", "value": "1-6 Day-h"}, {"measurement": "Time of maximum mean SBP reduction", "setting": "[1]; Japanese MAD 90 BID (C2)", "value": "1-6 Day-h"}, {"measurement": "Dose dependence of mean BP reduction", "setting": "[1]; Japanese MAD cohorts", "value": "no clear Compound A dose-dependent BP reduction trend"}, {"measurement": "Kb", "setting": "LPA1", "value": 5.9, "unit": "nM"}, {"measurement": "Difference (S.E.) in rate of decline in FVC (% Predicted), 30 mg - placebo", "setting": "participants with PPF; UIP absent, primary estimand (treatment policy)", "value": "2.25 (2.13) % Predicted"}, {"measurement": "Difference (S.E.) in rate of decline in FVC (% Predicted), 30 mg - placebo", "setting": "participants with PPF; UIP absent, supplementary estimand (while on treatment)", "value": "2.26 (2.28) % Predicted"}, {"measurement": "Difference (S.E.) in rate of decline in FVC (% Predicted), 30 mg - placebo", "setting": "participants with PPF; UIP present, primary estimand (treatment policy)", "value": "0.88 (1.6) % Predicted"}, {"measurement": "Difference (S.E.) in rate of decline in FVC (% Predicted), 30 mg - placebo", "setting": "participants with PPF; UIP present, supplementary estimand (while on treatment)", "value": "1.28 (1.61) % Predicted"}, {"measurement": "Difference (S.E.) in rate of decline in FVC (% Predicted), 30 mg - placebo", "setting": "participants with PPF; not receiving antifibrotic treatment, primary estimand (treatment policy)", "value": "1.28 (1.63) % Predicted"}, {"measurement": "Difference (S.E.) in rate of decline in FVC (% Predicted), 30 mg - placebo", "setting": "participants with PPF; not receiving antifibrotic treatment, supplementary estimand (while on treatment)", "value": "1.34 (1.66) % Predicted"}, {"measurement": "Difference (S.E.) in rate of decline in FVC (% Predicted), 30 mg - placebo", "setting": "participants with PPF; overall, primary estimand (treatment policy)", "value": "1.57 (1.29) % Predicted"}, {"measurement": "Difference (S.E.) in rate of decline in FVC (% Predicted), 30 mg - placebo", "setting": "participants with PPF; overall, supplementary estimand (while on treatment)", "value": "1.78 (1.34) % Predicted"}, {"measurement": "Difference (S.E.) in rate of decline in FVC (% Predicted), 30 mg - placebo", "setting": "participants with PPF; receiving antifibrotic treatment, primary estimand (treatment policy)", "value": "1.99 (2.12) % Predicted"}, {"measurement": "Difference (S.E.) in rate of decline in FVC (% Predicted), 30 mg - placebo", "setting": "participants with PPF; receiving antifibrotic treatment, supplementary estimand (while on treatment)", "value": "2.58 (2.25) % Predicted"}, {"measurement": "Dose response of efficacy (ppFVC decline)", "setting": "participants with PPF; 30 mg and 60 mg BID", "value": "Clear dose response"}, {"measurement": "Difference (S.E.) in rate of decline in FVC (% Predicted), 60 mg - placebo", "setting": "participants with PPF; 60 mg BID, UIP absent, primary estimand (treatment policy)", "value": "3.81 (2.02) % Predicted"}, {"measurement": "Difference (S.E.) in rate of decline in FVC (% Predicted), 60 mg - placebo", "setting": "participants with PPF; 60 mg BID, UIP absent, supplementary estimand (while on treatment)", "value": "3.80 % Predicted and 3.8 (2.17) % Predicted"}, {"measurement": "Difference (S.E.) in rate of decline in FVC (% Predicted), 60 mg - placebo", "setting": "participants with PPF; 60 mg BID, UIP present, primary estimand (treatment policy)", "value": "2.49 (1.61) % Predicted"}, {"measurement": "Difference (S.E.) in rate of decline in FVC (% Predicted), 60 mg - placebo", "setting": "participants with PPF; 60 mg BID, UIP present, supplementary estimand (while on treatment)", "value": "2.12 % Predicted and 2.12 (1.62) % Predicted"}, {"measurement": "Difference (S.E.) in rate of decline in FVC (% Predicted), 60 mg - placebo", "setting": "participants with PPF; 60 mg BID, not receiving antifibrotic treatment, primary estimand (treatment policy)", "value": "2.85 (1.6) % Predicted"}, {"measurement": "Difference (S.E.) in rate of decline in FVC (% Predicted), 60 mg - placebo", "setting": "participants with PPF; 60 mg BID, not receiving antifibrotic treatment, supplementary estimand (while on treatment)", "value": "2.61 % Predicted and 2.61 (1.63) % Predicted"}, {"measurement": "Difference (S.E.) in rate of decline in FVC (% Predicted), 60 mg - placebo", "setting": "participants with PPF; 60 mg BID, overall, primary estimand (treatment policy)", "value": "3.2 % Predicted and 3.15 (1.27) % Predicted"}, {"measurement": "Difference (S.E.) in rate of decline in FVC (% Predicted), 60 mg - placebo", "setting": "participants with PPF; 60 mg BID, overall, supplementary estimand (while on treatment)", "value": "2.9 % Predicted and 2.94 % Predicted and 2.94 (1.32) % Predicted"}, {"measurement": "Difference (S.E.) in rate of decline in FVC (% Predicted), 60 mg - placebo", "setting": "participants with PPF; 60 mg BID, receiving antifibrotic treatment, primary estimand (treatment policy)", "value": "3.74 (2.1) % Predicted"}, {"measurement": "Difference (S.E.) in rate of decline in FVC (% Predicted), 60 mg - placebo", "setting": "participants with PPF; 60 mg BID, receiving antifibrotic treatment, supplementary estimand (while on treatment)", "value": "3.28 % Predicted and 3.28 (2.21) % Predicted"}, {"measurement": "Adjusted mean treatment difference in absolute change in FVC vs placebo", "setting": "participants with PPF; 60 mg BID, week 26", "value": 87.4, "unit": "mL"}, {"measurement": "Consistency of efficacy across sub-groups", "setting": "participants with PPF; irrespective of background antifibrotics or of UIP pattern", "value": "Efficacy consistent in all sub-groups"}]}
